Values quoted from earlier work in patent US20140017308A1, “COMPOSITIONS COMPRISING A FATTY ACID OIL MIXTURE, A FREE FATTY ACID, AND A STATIN” (Pronova Biopharma Norge AS, priority 2010, published 2014).

settings: in vivo

half-life	Structure (SMILES)
2 to 3 h	CCC(C)(C)C(=O)O[C@H]1C[C@@H](C)C=C2C=C[C@H](C)[C@H](CC[C@@H]3C[C@@H](O)CC(=O)O3)[C@H]21 [simvastatin]
about 20 hours	CC(C)c1nc(N(C)S(C)(=O)=O)nc(-c2ccc(F)cc2)c1/C=C/[C@@H](O)C[C@@H](O)CC(=O)O [rosuvastatin]
about 0.8 hours	CC[C@H](C)C(=O)O[C@H]1C[C@H](O)C=C2C=C[C@H](C)[C@H](CC[C@@H](O)C[C@@H](O)CC(=O)O)[C@H]21 [pravastatin]
